Experimental findings from PubChem BioAssay AID624367 (Broad Institute, 2012) are described below.

Molecules are shown by their SMILES. Activity calls are given as the source filed them. How the calls were made is not given here.

Tested on in one experiment: not listed separately
Description: viability loss in LCL cells – cell-based, plate reader, dry powder, set 2, cytotoxicity control, dose response (AID 624367). The conditions noted are these: Lymphoblastoid cell line (LCL) cytotoxicity, plate reader; at 35 µM (top of the series).
As for `Cc1noc(C)c1S(=O)(=O)Nc1ccc2c(c1)C(=O)N([C@H](C)CO)C[C@@H](C)[C@@H](CN(C)Cc1ccc(C(F)(F)F)cc1)OCCCC[C@@H](C)O2`, the activity change, negative = cytotoxicity is 1.01% (inactive). On to `C[C@@H]1CN([C@H](C)CO)C(=O)c2c(c3ccccc3n2C)-c2ccccc2CO[C@H]1CN(C)C(=O)Nc1ccc(F)cc1`, for which the activity change, negative = cytotoxicity is 1.26% (inactive). The same measure, in the same setting: for `CC(C)NC(=O)N1Cc2cc(C(=O)NC3Cc4ccccc4C3)nc(-c3cccc(-c4cccnc4)c3)c2[C@H]1CCO` the value was -2.11% (inactive); for `COc1ccc(NC(=O)N(C)C[C@@H]2Oc3cc(C#CCC(C)C)ccc3S(=O)(=O)N([C@@H](C)CO)C[C@@H]2C)cc1`, -0.055% (inactive). The same measure, in the same setting: for `O=C(C[C@@H]1C[C@@H]2c3cc(NC(=O)c4cccnc4)ccc3O[C@@H]2[C@H](CO)O1)NCC(F)(F)F` the value was -0.745% (inactive); for `C[C@H]1CN([C@@H](C)CO)C(=O)c2c(c3ccccc3n2C)-c2ccccc2CO[C@H]1CN(C)C(=O)Nc1ccc(F)cc1`, 0.119% (inactive); for `COc1cccc(S(=O)(=O)N(C)C[C@H]2Oc3cc(C4=CCCCC4)ccc3S(=O)(=O)N([C@H](C)CO)C[C@H]2C)c1`, -4.62% (inactive).

`C[C@H]1CN([C@@H](C)CO)C(=O)Cc2cc(NC(=O)Cc3ccccc3)ccc2O[C@@H]1CN(C)Cc1ccc(C(F)(F)F)cc1`: the activity change, negative = cytotoxicity was -5.68% (inactive). Still for that read-out and setting: for `O=C(Cc1ccccn1)NCC[C@@H]1CC[C@@H](NC(=O)Nc2ccc(Cl)cc2)[C@@H](CO)O1` the value was 1.2% (inactive); for `COc1ccccc1C#Cc1ccc([C@H]2[C@H](C#N)N(C(=O)C3CC3)[C@H]2CO)cc1`, -4.85% (inactive); for `C[C@H](CO)N1C[C@H](C)[C@H](CN(C)Cc2ccc(Oc3ccccc3)cc2)Oc2ccc(NC(=O)CCCN(C)C)cc2C1=O`, -0.446% (inactive). Still for that read-out and setting: for `Cc1ccc(S(=O)(=O)N(C)C[C@H]2Oc3cc(C#Cc4ccncc4)ccc3S(=O)(=O)N([C@@H](C)CO)C[C@@H]2C)cc1` the value was 8.38% (inactive); for `Cc1cc(C(=O)Nc2ccc3c(c2)C(=O)N(C)[C@H]2CC[C@H](CC(=O)NCc4ccc(-c5ccccc5)cc4)O[C@H]2CO3)no1`, -10.2% (inactive); for `C[C@H]1CN([C@@H](C)CO)C(=O)c2c(c3ccccc3n2C)-c2ccccc2CO[C@@H]1CN(C)C(=O)Nc1ccc(F)cc1`, 1.36% (inactive). In the case of `CC(C)NC(=O)N1[C@H](CO)[C@H](c2ccc(C#CC3CCCCC3)cc2)[C@@H]1C#N`, the activity change, negative = cytotoxicity is -1.32% (inactive).

As to `C[C@@H]1CN([C@H](C)CO)C(=O)c2c(c3ccccc3n2C)-c2ccccc2CO[C@@H]1CN(C)C(=O)Nc1ccc(F)cc1`, the activity change, negative = cytotoxicity was -1.38% (inactive). Still for that read-out and setting: for `O=C(C[C@@H]1C[C@@H]2c3cc(NS(=O)(=O)c4ccc(F)cc4)ccc3O[C@@H]2[C@H](CO)O1)NC1CCCCC1` the value was 0.429% (inactive).

For another experiment, the system named is Lymphoblastoid cell line (LCL) cytotoxicity, plate reader. The description is as above.
Settings: not given
With `O=C(C[C@H]1C[C@@H]2c3cc(NS(=O)(=O)c4ccc(F)cc4)ccc3O[C@@H]2[C@@H](CO)O1)NCc1ccc(Oc2ccccc2)cc1`, the AC35 is 34.7 µM. On the same count and under the same terms, for `O=C(C[C@@H]1C[C@@H]2c3cc(NC(=O)c4ccc5c(c4)OCO5)ccc3O[C@@H]2[C@@H](CO)O1)NCc1ccc(Oc2ccccc2)cc1` the value was 16 µM; for `O=C(C[C@@H]1C[C@@H]2c3cc(NS(=O)(=O)c4ccc(F)cc4)ccc3O[C@@H]2[C@@H](CO)O1)NCc1ccc(Oc2ccccc2)cc1`, 22.2 µM. Consider `O=C(C[C@H]1C[C@H]2c3cc(NC(=O)c4ccc5c(c4)OCO5)ccc3O[C@H]2[C@H](CO)O1)NCc1ccc(Oc2ccccc2)cc1`, for which the AC35 was 33.8 µM. Still for that read-out and setting: for `O=C(Nc1ccc(C(F)(F)F)cc1)Nc1ccc2c(c1)[C@@H]1C[C@H](CC(=O)N3CCc4ccccc4C3)O[C@H](CO)[C@@H]1O2` the value was 36.7 µM; for `CN(C)c1ccc2c(c1)[C@@H]1C[C@H](CC(=O)NCc3ccc(Oc4ccccc4)cc3)O[C@@H](CO)[C@@H]1O2`, 30.4 µM.
